Measured values taken from US20190284192A1, “NITROGENOUS MACROCYCLIC COMPOUND, PREPARATION METHOD THEREFOR, PHARMACEUTICAL COMPOSITION AND APPLICATION THEREOF” (LUOXIN PHARMACEUTICAL (SHANGHAI) CO., LTD., priority 2016, published 2019).
Where two headings read alike, the source gives them in different places.

Legend:
[1] = Cassette pharmacokinetic study, intravenous or oral administration; format: in vivo, female Balb/c nude mice; parameters: Cmax: unit not given here; details: for F: PO 2 mg/kg vs IV 0.5 mg/kg; for AUC(0-inf) / AUC(0-t) / MRT inf / clearance / half-life / Vd / Tmax: female, Balb/c nude, mouse, whole blood; for AUC(0-inf) / AUC(0-t) / MRT inf / clearance / half-life / Vd / Tmax / Cmax: N = 3, cassette; for half-life: read-out: Terminal t1/2 (converted); for Vd: read-out: Vss
Description: Determinations of the pharmacokinetic parameters of ABBV-075 (standard control), 4009, 4018, 4026 and 4031 in femal Balb/c nude mice after intravenous or oral administration.
Detailed Experimental Steps:
6 female Balb/c nude mice weighing 18-20 g were divided into two groups (3/group), after fixation, the intravenous group: 0.5 mg/kg (5 mL/kg) injected by caudal vein (N=3); the oral group: 2 mg/kg (10 mL/kg) by intragastic administration (N=3). Approximately 20 μL of blood was drawn behind the eyeball at the sampling point and placed in EDTA-2K tube. The sample was immediately diluted with 40 μL of double distilled water and vortexed until well mixed. Blood samples were stored at approximately −70° C. and submitted to the BA group for analysis (LC/MS). 30 μL of blood sample was added with 200 μL of H2O and 30 μL of IS dexamethasone, 200 ng/mL), layered by LLE, and 1 mL of MTBW was added as an organic extraction solvent. The mixture was vortexed for 10 min and centrifuged at 10,000 rpm for 5 min. 850 μL of the supernatant was evaporated under nitrogen until desiccated. The desiccated extract was re-mixed with 150 μL of 50% methanol, vortexed for 2 min, and then analyzed by injecting 5 μL of the supernatant into LC-MS/MS.
2. Intravenous/oral administration formula: 5% DMSO, 95% (10% HP-3-CD in water)
3. PK calculation parameter used non-compartment model, WinNonlin 6.4 software calculation

SU-DHL-6 cells = experiment: Inhibitory effect on SU-DHL-6 cells (CellTiter-Glo); format: cell-based; details: Homo sapiens; 72 hours, CellTiter-Glo; read-out: SU-DHL-6
Description: Determinations of the inhibition of the compounds from the above embodiments against SU-DHL-6 cells, the detailed operation steps are as followed:
The 1st Day: Seed the Cells on the Plate
1. The cells were verified that they were in good conditions by observation under microscope;
2. The cells were transferred to a centrifuge tubes, after centrifuged at 1000 rpm for 5 min, the supernatant was discarded;
3. The complete substrate (1640+10% FBS) was added, then blown and patted into single cell suspension, counted by Vi-cell cytometer, the cell suspension was adjusted to desired cell density by the complete medium.
4. The cells were inoculated into a 96 well plate, the cell number was 12000/well at 100 μL per well, 100 μL complete medium was added into the black control;
5. 37° C., 5% CO2 culture overnight.
The 2nd Day: Addition of the Drugs
1. 1000× Compound Plate Preparation
1.1. The test compound was prepared into 10 mM working solution by using DMSO. Then the STS was prepared into 2 mM working solution by using DMSO.
1.2. In the round bottom 96 wells plate, the column 2 of row A to H was added into 60 μL 10 mM test compound (or STS) working solution, columns 3-11 were added into 40 μL DMSO, 20 μL drug solution was pipetted from the column 2 to the column 3, blown and patted for a homogeneous mixture; then 20 μL solution was pipetted from the column 3 to the column 4, blown and patted for a homogeneous mixture, sequently, the drug was diluted by 3 times, 10 concentrations in total. The columns 1 and 12 were supplemented with 40 μL of DMSO.
2. Intermediate plate preparation
A sterile V-bottom 96 deep well plate was used and in each well, 495 μL FBS-free PRMI 1640 medium was added, then 5 μL of the diluted compound (or DMSO) in the 1000× compound plate was pipetted into corresponding position of the V-bottom 96 well plate, blown and patted evenly.
3.1. The cell plate was taken out from the incubator and was observed under microscope. The diluted compound or DMSO in the intermediate plate was added into the cell plate, 11 μL each well.
3.2. The cell was continued to be cultured at 37° C., 5% CO2 for 72 hours.
The 5th Day: CellTiter-Glo Detection of the Cell Activity
1. The CellTiter-Glo buffer and the reaction substrate were taken out from the refrigerator, after balanced to r.t., the buffer was poured into a brown bottle containing the substrate, the bottle was upside down to have the substrate powder sufficientaly dissolved.
2. The cell was observed under microscope; the cell plate was balanced to r.t.
3. The prepared CellTiter-Glo was added into the 96 well plate, at 100 μL/well.
4. The cell plate was placed on a shaker for 10 min, followed by standing at r.t. for 10 min.
5. A white seal film was attached to the bottom of the well plate, and the chemiluminescence signal of each well was detected by the Enspire microplate detector.
6. XLfit was used for data processing. Inhibition rate %=(d-c)/(d-b)×100, while d is the signal value of the DMSO treated group, c is the signal value of the compound treated group, b is signal value of the blank control that only containing medium and DMSO without cells. The data was fitted using the f (x)205[fit=(A+((B−A)/(1+((C/x)^∧D))))] equation in the XLfit software.

BRD4 (BD1) = molecular target: T1, BRD4 (BD1) (Homo sapiens, UniProt O60885); experiment: BRD4 (BD1) bromodomain binding, HTRF; details: 2 h incubation at r.t.
T1 construct: Each member comprises two tandem bromodomains (BD1 and BD2) for recognizing the acetylated lysine residues

Work on CCS(=O)(=O)Nc1ccc(Oc2ccc(F)cc2F)c(-c2cn(C)c(=O)c3[nH]ccc23)c1 [ABBV-075] yielded an F [1] of 62.5%, an AUC(0-inf) ([1]; IV 0.5 mg/kg) of 510 ng·h/mL and an AUC(0-t) ([1]; IV 0.5 mg/kg) of 457 ng·h/mL. It also gave an MRT inf ([1]; IV 0.5 mg/kg) of 3.1 h, a clearance ([1]; IV 0.5 mg/kg) of 16.4 mL/min/kg and a half-life ([1]; IV 0.5 mg/kg) of 2.8 h. For the same compound, the Vd ([1]; IV 0.5 mg/kg) was 3.06 L/kg, the AUC(0-inf) ([1]; PO 2 mg/kg) was 1680 ng·h/mL and the AUC(0-t) ([1]; PO 2 mg/kg) was 1140 ng·h/mL. It also gave a Tmax ([1]; PO 2 mg/kg) of 1 h, a half-life ([1]; PO 2 mg/kg) of 4.56 h and an IC50 (SU-DHL-6 cells) of 21 nM. It also gave an IC50 (BRD4 (BD1)) of 2 nM.

In the case of CCS(=O)(=O)Cc1ccc2c(c1)-c1cn(C)c(=O)cc1CN=C2c1ccc(F)cc1 [Compound 4009, 7-(4-fluorophenyl)-2-methyl-10-(ethylsulfonemethyl)-2H-benzo[c]pyrido[3,4-e]azepin-3(5H)-ketone], the F [1] is reported as 99.7%, the Cmax ([1]; PO 2 mg/kg) is reported as 742 and the AUC(0-inf) ([1]; IV 0.5 mg/kg) is reported as 590 ng·h/mL. The AUC(0-t) ([1]; IV 0.5 mg/kg) was 575 ng·h/mL, the MRT inf ([1]; IV 0.5 mg/kg) was 1.61 h and the clearance ([1]; IV 0.5 mg/kg) was 14.2 mL/min/kg. The half-life ([1]; IV 0.5 mg/kg) was 1.69 h, the Vd ([1]; IV 0.5 mg/kg) was 1.38 L/kg and the AUC(0-inf) ([1]; PO 2 mg/kg) was 2350 ng·h/mL. The AUC(0-t) ([1]; PO 2 mg/kg) was 2250 ng·h/mL, the Tmax ([1]; PO 2 mg/kg) was 0.667 h and the half-life ([1]; PO 2 mg/kg) was 4.21 h. For the same compound, the IC50 (SU-DHL-6 cells) was 83 nM and the IC50 (BRD4 (BD1)) was 6 nM.

For CCS(=O)(=O)Cc1ccc2c(c1)-c1cn(C)c(=O)cc1[C@H](C)N=C2c1ccc(F)cc1 [Compound 4026, (S)-10-((ethylsulfone)methyl)-7-(4-fluorophenyl)-2,5-dimethyl-2,5-dihydro-3H-benzo[c]pyrido[3,4-e]azepin-3-ketone], the F [1] was 89.5%, the Cmax ([1]; PO 2 mg/kg) was 1082 and the AUC(0-inf) ([1]; IV 0.5 mg/kg) was 1140 ng·h/mL. It also gave an AUC(0-t) ([1]; IV 0.5 mg/kg) of 1100 ng·h/mL, an MRT inf ([1]; IV 0.5 mg/kg) of 3.21 h and a clearance ([1]; IV 0.5 mg/kg) of 7.5 mL/min/kg. It also gave a half-life ([1]; IV 0.5 mg/kg) of 2.85 h, a Vd ([1]; IV 0.5 mg/kg) of 1.43 L/kg and an AUC(0-inf) ([1]; PO 2 mg/kg) of 4050 ng·h/mL. The AUC(0-t) ([1]; PO 2 mg/kg) was 3740 ng·h/mL, the Tmax ([1]; PO 2 mg/kg) was 0.5 h and the half-life ([1]; PO 2 mg/kg) was 4.35 h. It also gave an IC50 (SU-DHL-6 cells) of 10 nM and an IC50 (BRD4 (BD1)) of 2 nM.
